Columns and labels:
VR1 nociceptor = VR1 nociceptor (Rattus norvegicus, UniProt O35433); test: Blocking of capsaicin-activated ionic current in X. laevis ovocites expressing the VR1 nociceptor (two-microelectrode voltage clamp); type: cell-based; conditions: activated by capsaicin 20 μM, -80 mV, read-out: concentration that inhibited half the VR1 nociceptor response (IC50)
[1] = test system: irritation produced by topical capsaicin in the eye; test: Ocular pain model: scratches after topical capsaicin in the eye of a mouse; type: in vivo; conditions: scratches during 1 minute, second capsaicin application with compound vs first without
Protocol: An investigation was performed on the attenuation of the N-alkylglycine trimeres indicated in Table 1, on the irritation produced by the topical application of capsaicin in the eyes of animals, an ocular pain model (22). The experimental paradigm compares the number of scratches after the topical administration of capsaicin at 0,01% in the eye of a mouse, in the absence and presence of the N-alkylglycine trimeres. After the administration of capsaicin, the number of times the mouse scratches its treated eye during 1 minute is counted. Subsequently, the affected eye is extensively rinsed with saline solution and 15 minutes after application, the compound to be tested is administered. After 5 minutes incubation, a 0,1% capsaicin solution containing the compound to be tested is administered. The number of times the animal scratches its eye during 1 minute is immediately counted. The analgesic capacity is obtained by comparing the number of scratches in the first application of capsaicin (without the compound to be tested) and the second application of the irritant (in the presence of the compound to be tested). A decrease of scratches in the second application of capsaicin is indicative of an analgesic activity of the N-alkylglycine trimere tested.

[2] = biological target: NMDA receptor (NR1 and NR2A subunities) (Homo sapiens, UniProt Q05586+Q12879); test: Blocking of L-glutamate/glycine-activated ionic current in X. laevis ovocites expressing the NMDA receptor (two-microelectrode voltage clamp); type: cell-based; conditions: activated by L-glutamate/glycine 100 μM/20 μM, -80 mV, read-out: concentration that inhibited half the NMDA receptor response (IC50)
Chain of NMDA receptor (NR1 and NR2A subunities) (Q12879 23-1464, other chains not shown): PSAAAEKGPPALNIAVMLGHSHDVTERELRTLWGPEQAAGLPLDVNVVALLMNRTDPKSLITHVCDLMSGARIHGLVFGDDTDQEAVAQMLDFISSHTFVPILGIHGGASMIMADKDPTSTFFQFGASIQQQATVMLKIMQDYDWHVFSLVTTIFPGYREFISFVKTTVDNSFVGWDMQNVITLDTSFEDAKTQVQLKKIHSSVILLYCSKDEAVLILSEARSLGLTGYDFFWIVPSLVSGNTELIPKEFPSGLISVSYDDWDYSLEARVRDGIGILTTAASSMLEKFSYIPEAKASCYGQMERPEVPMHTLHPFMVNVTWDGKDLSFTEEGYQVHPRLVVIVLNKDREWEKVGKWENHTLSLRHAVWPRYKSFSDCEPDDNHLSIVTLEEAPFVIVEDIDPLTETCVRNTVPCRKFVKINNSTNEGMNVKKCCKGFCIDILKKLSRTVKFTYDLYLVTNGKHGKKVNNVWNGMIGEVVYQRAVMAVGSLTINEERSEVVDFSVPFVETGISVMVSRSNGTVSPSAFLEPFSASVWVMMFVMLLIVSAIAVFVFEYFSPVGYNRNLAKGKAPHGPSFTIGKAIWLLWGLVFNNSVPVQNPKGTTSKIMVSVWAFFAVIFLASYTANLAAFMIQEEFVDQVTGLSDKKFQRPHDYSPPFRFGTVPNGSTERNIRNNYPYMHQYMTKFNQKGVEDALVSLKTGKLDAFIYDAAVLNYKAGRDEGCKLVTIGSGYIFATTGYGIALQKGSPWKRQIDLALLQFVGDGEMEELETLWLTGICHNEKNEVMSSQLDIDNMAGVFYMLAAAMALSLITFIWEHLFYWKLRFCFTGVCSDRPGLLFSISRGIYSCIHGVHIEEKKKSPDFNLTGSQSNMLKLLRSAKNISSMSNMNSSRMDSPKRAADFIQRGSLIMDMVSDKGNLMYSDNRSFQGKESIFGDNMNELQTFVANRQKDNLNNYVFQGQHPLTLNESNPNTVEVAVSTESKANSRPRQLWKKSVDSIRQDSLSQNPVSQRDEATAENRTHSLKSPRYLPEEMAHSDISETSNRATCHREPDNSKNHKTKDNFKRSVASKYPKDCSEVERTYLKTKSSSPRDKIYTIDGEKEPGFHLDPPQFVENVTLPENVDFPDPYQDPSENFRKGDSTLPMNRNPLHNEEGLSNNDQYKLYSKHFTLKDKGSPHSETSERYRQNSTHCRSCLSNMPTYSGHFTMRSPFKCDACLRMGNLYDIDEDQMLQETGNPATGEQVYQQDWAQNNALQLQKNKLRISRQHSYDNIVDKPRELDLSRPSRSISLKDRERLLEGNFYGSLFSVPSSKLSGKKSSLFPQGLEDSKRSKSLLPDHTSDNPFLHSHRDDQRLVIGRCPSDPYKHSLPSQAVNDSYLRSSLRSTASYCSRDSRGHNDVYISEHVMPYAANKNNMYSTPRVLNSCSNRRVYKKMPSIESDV
Source text: In order to evaluate the biological activity of the N-alkylglycine trimeres obtained in Example 1.1 on type NMDA glutamatergic receptors, a test was developed that evaluated the efficiency and power of said compounds blocking the ionic current activated by X. laevis ovocite agonist that express the type NMDA receptor, the […].
The heterologeous expression of receptors in X. laevis ovocites may be carried out according to the procedure described by Ferrer-Montiel and Montal (19). Briefly, the X. laevis ovocites of adult frogs are gathered, manipulated and injected with cRNA that codes the NR1 and NR2A subunities of the NMDA receptor (5, 20). The ionic currents activated by L-glutamate agonist in the presence of the glycine coagonist are recorded with the constant voltage maintenance technique with two microelectrodes (two-microelectrode voltage clamp) (19, 20). The ovocites that express the receptor are transferred to the recording chamber and perfunded using an 8-output perfusion system. The agonist and the coagonist, both in the absence and in the presence of the N-alkylglcycine trimeres to be tested, are dissolved in a Ringer buffer (Hepes 10 mM pH 7,4 NaCl 100 mM, Ba Cl2, 2,0 mM, KCl 3,0 mM) supplemented with 100 μM fluphenamic acid (20). This buffered solution is used to minimize the contribution of the chloride endogenous ionic channel activated by calcium to the glutamatergic receptor ionic current (19, 20). The transmembrane voltage is kept constant at −80 mV and the ionic currents are activated by applying pulses of the L-glutamate/glycine solution (100 μM /20 μM) in the presence or absence of growing concentrations of the N-alkylglycine trimeres to be tested. The inhibiting activity is detected by measuring the ionic current activated by the agonist in the presence and absence of the N-alkylglycine trimeres.
The power and efficiency of the N-alkylglycine trimeres inhibiting activity is determined by obtaining the dose-response curves. […]

Chain of VR1 nociceptor (O35433 whole entry): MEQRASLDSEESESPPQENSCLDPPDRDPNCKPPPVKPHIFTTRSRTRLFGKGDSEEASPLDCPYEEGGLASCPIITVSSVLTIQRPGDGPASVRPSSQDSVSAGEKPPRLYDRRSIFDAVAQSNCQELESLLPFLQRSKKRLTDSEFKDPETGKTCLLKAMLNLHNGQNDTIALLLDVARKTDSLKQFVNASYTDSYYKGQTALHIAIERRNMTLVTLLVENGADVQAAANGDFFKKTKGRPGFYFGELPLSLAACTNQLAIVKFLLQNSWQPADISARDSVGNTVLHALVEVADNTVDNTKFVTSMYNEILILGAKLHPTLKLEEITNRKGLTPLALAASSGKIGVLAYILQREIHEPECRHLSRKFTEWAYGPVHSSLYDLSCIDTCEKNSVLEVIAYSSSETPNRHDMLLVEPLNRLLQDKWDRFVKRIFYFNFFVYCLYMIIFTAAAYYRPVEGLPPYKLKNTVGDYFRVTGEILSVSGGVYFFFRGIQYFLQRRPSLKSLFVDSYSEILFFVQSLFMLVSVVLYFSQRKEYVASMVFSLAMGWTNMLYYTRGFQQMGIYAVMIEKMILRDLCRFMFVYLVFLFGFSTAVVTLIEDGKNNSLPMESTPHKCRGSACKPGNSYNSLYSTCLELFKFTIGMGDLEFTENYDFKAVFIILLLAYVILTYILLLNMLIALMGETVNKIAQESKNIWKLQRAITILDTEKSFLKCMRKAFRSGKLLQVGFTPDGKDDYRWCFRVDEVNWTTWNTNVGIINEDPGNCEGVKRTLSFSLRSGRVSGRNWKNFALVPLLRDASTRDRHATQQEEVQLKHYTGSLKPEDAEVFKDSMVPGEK

Row | SMILES | IC50 (VR1 nociceptor) | IC50 [2] | attenuation of the ocular irritation produced by capsaicin [1]
1 | CN1CCCC1CCNCC(=O)N(CCc1ccc(Cl)cc1Cl)CC(=O)N(CCc1ccc(Cl)cc1Cl)CC(N)=O (racemic) [compound [4], [N-[(R,S)-2-[2-(N-methyl)pyrrolidinyl]ethyl]glycyl]-[N-(2,4-dichlorophenethyl)glycyl]-N-(2,4-dichlorophenethyl)glycinamide] | ~1 µM |  | approximately 40%
2 | CCN(CC)CCCNCC(=O)N(CCc1ccc(Cl)cc1Cl)CC(=O)N(CCC(C)C)CC(N)=O [compound [7], [N-[3-(N,N-diethylamine)propyl]glycyl]-[N-(2,4-dichlorophenethyl)glycyl]-N-(3-methylbutyl)glycinamide] | ~30 µM |  | 
3 | CCN(CC)CCCNCC(=O)N(CCc1ccc(Cl)cc1Cl)CC(=O)N(CCc1ccc(Cl)cc1Cl)CC(N)=O [compound [8], [N-[3-(N,N-diethylamine)propyl]glycyl]-[N-(2,4-dichlorophenethyl)glycyl]-N-(2,4-dichlorophenethyl)glycinamide] | ~2 µM |  | approximately 20%
4 | CCN(CC)CCCN(CC(=O)N(CCc1ccc(Cl)cc1Cl)CC(N)=O)C(=O)CNCCC(c1ccccc1)c1ccccc1 [compound [9]] |  | 1 µM | 

Further lines, with some results ahead:

Row | IC50 (VR1 nociceptor) | IC50 [2] | SMILES | attenuation of the ocular irritation produced by capsaicin [1]
5 |  | ~2 µM | CCN(CC)CCCN(CC(=O)N(CCc1ccccn1)CC(N)=O)C(=O)CNCCC(c1ccccc1)c1ccccc1 [compound [10]] | 
6 |  | ~10 µM | CCN(CC)CCCN(CC(=O)N(CCn1ccnc1)CC(N)=O)C(=O)CNCCC(c1ccccc1)c1ccccc1 [compound [11]] | 
